Test results published in ChEMBL document CHEMBL1126434, “Anti-allergic and anti-inflammatory actions of 2-(tetrazole-5-yl)-4-hydroxy-2-methyl-2H-1,2-benzothiazine-3-carboxanilide 1,1-dioxide” (1992).

What was measured:
Type in all cases: functional
[1] = species on record: Rattus norvegicus; assay: Compound was evaluated for the inhibition of biosynthesis of prostaglandins at a concentration of 10e3 M
[2] = system: Rattus norvegicus; assay: Compound was assessed for ulcerogenicity in rats at a dose of 500 mg/kg
[3] = species on record: Rattus norvegicus; assay: Compound was evaluated for the inhibition of biosynthesis of prostaglandins at a concentration of 10e5 M
[4] = system: Rattus norvegicus; assay: Compound was assessed for ulcerogenicity in rats at a dose of 300 mg/kg
[5] = species on record: Rattus norvegicus; assay: Compound was evaluated for the inhibition of biosynthesis of prostaglandins at a concentration of 10e4 M

| SMILES | Inhibition [1] [%] | Ulcer index [2] | Inhibition [3] [%] | Ulcer index [4] | Inhibition [5] [%] |
| --- | --- | --- | --- | --- | --- |
| CN1C(C(=O)Nc2ccccc2-c2nn[nH]n2)=C(O)c2ccccc2S1(=O)=O | 0 | 0 | 0 | 0 | 0 |
| COc1ccc(/C=C/C(=O)Nc2ccccc2C(=O)O)cc1OC [TRANILAST] | 0 | 0 | 0 | 0 | 0 |
